We go through one substance from US20220112225A1, “ANANDAMIDE COMPOUNDS” (priority 2019, published 2022).

What is called Vdss is a proportionality between amount in the body and measured concentration, not a real space. A higher Vdss goes with wide distribution into tissue.

For one series, the target named is T1, hMfsd2a (Homo sapiens, UniProt Q8NA29).
T1 construct: expressed in transfected cells; host or cells: HEK293
T1 sequence (Q8NA29 1-530 isoform Q8NA29-2): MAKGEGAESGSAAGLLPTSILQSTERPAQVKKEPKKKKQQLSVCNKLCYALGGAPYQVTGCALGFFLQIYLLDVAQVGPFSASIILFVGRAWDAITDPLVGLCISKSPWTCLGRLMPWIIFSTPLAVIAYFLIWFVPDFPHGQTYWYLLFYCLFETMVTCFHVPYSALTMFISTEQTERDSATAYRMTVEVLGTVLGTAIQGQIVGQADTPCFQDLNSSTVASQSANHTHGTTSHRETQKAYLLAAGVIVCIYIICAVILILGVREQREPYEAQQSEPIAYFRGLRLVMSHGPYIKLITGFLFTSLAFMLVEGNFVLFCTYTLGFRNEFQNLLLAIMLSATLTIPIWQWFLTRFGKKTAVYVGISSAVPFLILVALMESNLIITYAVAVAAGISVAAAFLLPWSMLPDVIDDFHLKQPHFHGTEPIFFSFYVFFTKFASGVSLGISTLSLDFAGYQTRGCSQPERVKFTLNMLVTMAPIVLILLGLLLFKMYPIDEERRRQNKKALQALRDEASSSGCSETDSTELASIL
As to the kind of experiment: In vitro Mfsd2a transport, UPLC-MS-MS analysis. The format is cell-based. The settings on record: transfected HEK293 cells, 50 μM test compound, 1 hour. As for the experimental part:
The assay was conducted in a low throughput 6-well format with HEK293 cells prepared and then transfected in duplicate wells with plasmids containing either the wildtype (WT) version of hMfsd2a, the D97A mutant version, or an empty vector as control. Uptake into the ceils was assessed by both thin-layer chromatography (TLC) and ultrahigh performance liquid chromatography hyphenated mass spectrometry.
HEK293 cells were seeded at 6.25×10^5 per 6-well in 2 mL of DMEM with 10% FBS and 1% penicillin-streptomycin (P/S) media (Sigma) and incubated overnight at 37° C. in 5% CO2. Cells were checked for confluency the next morning. On a per well basis the following lipid mix was generated, 6 μL of Lipofectamine 2000 was added dropwise to 200 μL of OptiMEM, this was left to stand for 5 minutes at room temperature (RT). 1 μg of hMfsd2a WT, D97A or empty plasmid was prepared in 200 μL of OptiMEM as appropriate for each well; the Lipofectamine 2000 in OptiMEM solution was then added dropwise to a total volume of 400 μL (this can be scaled to support the number of wells/plates to be assayed). This transfection preparation was then incubated at RT for 20 minutes. DMEM with 10% FBS and no P/S media was warmed to 37° C., the HEK293 plate media was changed and the cells washed carefully with 1 mL of the warmed DMEM with 10% FBS no P/S media, 1.6 mL of the warmed DMEM with 10% FBS no P/S media was then added to each well. 400 μL of the transfection preparation was then added dropwise to each well as appropriate and the plate was gently swirled in a circular motion. The plate was then incubated overnight at 37° C. in 5% CO2.
Compound Incubation and Preparation of Analysis Samples Compound stock solutions were prepared in a 12% BSA in PBS solution such that a 40 μL spike into 2 ml, of plain DMEM would yield a concentration of 50 μM of test compound (the compound treated media). Remaining compound stock solution in 12% BSA in PBS was frozen at −20° C. to allow for media stability testing. The HEK293 6-well plate was removed from the incubator and the wells gently rinsed with 1 mL of plain DMEM that had been prewarmed to 37° C. 2 mL of the compound treated media was then added to each well. A 100 μL sample of the compound treated media was sampled to represent a T=0 h sample; 5 μL of this sample (the remainder was reserved and frozen in case of re-analysis being required) was diluted with 45 μL of DMEM and crashed with 50 μL MeCN in a 96-well plate which was sealed and kept on ice. The HEK293 6-well plate was then incubated at 37° C. in 5% CO2 for 1 hour, the plate was then removed from the incubator and a 100 μL sample of media taken from each well to represent a T=1 h sample; 5 μL of this sample (the remainder was reserved and frozen in case of re-analysis being required) was diluted with 45 μL of DMEM and crashed with 50 μL MeCN into the 96-well plate which was re-sealed and stored at −20° C. The remaining media was then removed from the HEK293 6-well plate, the wells were gently rinsed twice with 1 mL of 0.5% BSA in DMEM, the media was then removed and the 6-well plate allowed to dry completely at RT. 1 ml of 3:2 Hexane:Isopropanol (HIP) was added to each well in a fume cupboard and the plate allowed to stand for 30 minutes at RT without shaking. The HIP solution was then transferred to 2 mL Eppendorf tubes, and the process was repeated with a second 1 mL aliquot of HIP and the two aliquots combined. The HIP samples were then dried down under a nitrogen stream.
HIP samples prepared as described above were reconstituted in 100 μL of MeCN, vortex mixed and inverted multiple times to ensure all surfaces of the Eppendorf tube were rinsed with the MeCN and finally pulse centrifuged. […]

Series [1] is described as follows: IV JVC rat PK study at 3 mg/kg. The format is in vivo. To be noted: male Sprague Dawley rats, 3 mg/kg IV. Here is the method:
Compound 3 was intravenously dosed at 3 mg/kg into a group of 3 individually housed, normally fed male Sprague Dawley rats that had been fitted with jugular vein catheters (JVCs). Dosing was performed with 2 mL/kg dosing volumes with 5% DMSO 95% water used as a dosing vehicle. Serial blood samples (150 μL) were taken from each animal at each time point post dose (0.08 h, 0.25 h, 0.5 h, 1 h, 2 h, 4 h, 8 h, and 24 h) into heparinised Eppendorf tubes (containing 5 μL heparin) on ice containing an equal quantity of water. Two 100 μL aliquots were then placed in duplicate 96 well plates on dry ice. Samples were stored in the freezer at −20° C. until bioanalysis.
Samples were defrosted and acetonitrile (containing internal standard) was used to precipitate the proteins. All the samples were mixed, centrifuged and the supernatants analysed by LC-MS-MS according to the following procedures: • 1. 20 μL plasma was transferred to a v-bottom 96-well plate. • 2. 80 μL acetonitrile (ACN) containing IS was added to each well. • 3. The plate was sealed and gently mixed for approximately 30 s. • 4. Plates were centrifuged for 10 min at 3500 rpm. • 5. 50 μL supernatant was transferred to a fresh v-bottom 96-well plate containing 100 μL MilliQ water.
Plates were thermo-sealed and stored at 4° C. until analysis. The resulting PK parameters are shown below in Table 1.

Regarding “2-(5Z,8Z,11Z,14Z)-icosa-5,8,11,14-tetraenamidoethyl (trimethylammonio) ethylphosphate [Compound 3]”, the “Transport via Mfsd2a: concentration in HIP samples from WT cells compared with D97A mutant Mfsd2a and/or empty vector cells” value on hMfsd2a is recorded as “transported via Mfsd2a”. In series [1], this substance returned an AUC0-inf of 2561.0 ng·h/mL, an AUC0-t of 2462.2 ng·h/mL, a CI of 31 mL/min/kg and a Vdss of 6.3 L/kg. Also, the t1/2 in series [1] is 7.4 h.
